Key:
Format in all cases: cell-based
[1] = test system: E. coli J53 Alone; experiment: MIC determination, isogenic E. coli strains; conditions: for MIC: Escherichia coli, J53ALONE, 18 h, read-out: Mimimum Inhibitory Concentrations, J53 Alone; for Mimimum Inhibitory Concentrations, J53 Alone: Table 4-2, CAMH broth, 20 μM Apo-Transferrin, 37° C., 18 hours
Summary of the method: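 Broth microdilution in cation-adjusted Mueller-Hinton broth with 20 μM apo-transferrin, 2-fold compound series from 64 μg/mL. E. coli J53, alone or transformed with a pBC-SK(+) plasmid carrying the beta-lactamase gene (e.g. DHA-1), inoculated from 0.5 McFarland suspension; 18 h at 37° C; MIC = lowest concentration with clear well.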

[2] = test system: Pseudomonas aeruginosa PA-RR-(G7294437); experiment: MIC determination; conditions: Pseudomonas aeruginosa; PA-RR-(G7294437); CAMH broth, 20 μM Apo-Transferrin, 37° C., 18 hours; read-out: Minimum Inhibitory Concentrations, PA-RR-(G7294437)
Method: (§1) Sterile technique was used throughout these experiments. Suspensions of organisms were removed from storage (−80° C.) and partially thawed. Partially thawed organisms (1 μL) were inoculated into 3 mL sterile LB Broth in a sterile culture tube and capped, then cultured at 37° C. with shaking for 4-5 hours until the optical density at 600 nm (OD600) was greater than 0.1 on a single beam spectrophotometer.
(§2) The concentration of organisms was adjusted to 0.08-0.1 OD600 (0.5 McFarland units) by dilution with sterile cation-adjusted Meuller-Hinton (CAMH) broth. The suspensions were used within 30 minutes of preparation.
(§3) A stock solution was made of each test compound by measuring 6.4 mg of the compound on an analytical balance and dissolving it in DMSO (1 mL) to get a transparent solution. The solutions were stored at −20° C. and thawed prior to use.
(§4) Sterile CAMH broth (200 μL) containing 20 μM Apo-Transferrin was pipetted into the first row of 8 columns of a sterile, round-bottomed, transparent, 96-well microplate using an 8-channel pipette equipped with sterile tips. One hundred μL was pipetted into the wells of the remaining 11 rows.
(§5) With an 8-channel pipette equipped with sterile tips, 100 μL of the first row solution was transferred to the second row and mixed. The process was repeated for the second to third rows and continued through row 11. One hundred μL from row 11 was removed and discarded so that all 12 rows contained 100 μL. Row 12 contained no compound and rows 1-11 contained 64, 32, 16, 8, 4, 2, 1, 0.5, 0.25, 0.125, […] of a given compound.
(§6) Inoculant suspensions (0.5 μL) were added to the 12 wells of each column. The plates were then covered and incubated at 37° C. overnight for 18 hours.
(§7) For each organism the MIC was determined by identifying the transparent well with the lowest test compound concentration.

[3] = test system: Pseudomonas aeruginosa PA-RR-(G8062859); experiment: MIC determination; conditions: Pseudomonas aeruginosa; PA-RR-(G8062859); CAMH broth, 20 μM Apo-Transferrin, 37° C., 18 hours; read-out: Minimum Inhibitory Concentrations, PA-RR-(G8062859)
Method: as §1, §2, §3, §4, §5, §6, §7

[4] = test system: Pseudomonas aeruginosa PA-RR-(purple Fre D); experiment: MIC determination; conditions: Pseudomonas aeruginosa, CAMH broth, 20 μM Apo-Transferrin, 37° C., 18 hours, read-out: Minimum Inhibitory Concentrations, PA-RR-(purple Fre D)
Method: as §1, §2, §3, §4, §5, §6, §7

[5] = test system: Pseudomonas aeruginosa (PA); experiment: MIC determination; conditions: Pseudomonas aeruginosa; PA; CAMH broth, 20 μM Apo-Transferrin, 37° C., 18 hours; read-out: Minimum Inhibitory Concentrations, PA
Method: as §1, §2, §3, §4, §5, §6, §7

[6] = test system: Pseudomonas aeruginosa PA-RR-(98023895); experiment: MIC determination; conditions: Pseudomonas aeruginosa; PA-RR-(98023895); CAMH broth, 20 μM Apo-Transferrin, 37° C., 18 hours; read-out: Minimum Inhibitory Concentrations, PA-RR-(98023895)
Method: as §1, §2, §3, §4, §5, §6, §7

[7] = test system: Pseudomonas aeruginosa PA-RR-(980151052); experiment: MIC determination; conditions: Pseudomonas aeruginosa; PA-RR-(980151052); CAMH broth, 20 μM Apo-Transferrin, 37° C., 18 hours; read-out: Minimum Inhibitory Concentrations, PA-RR-(980151052)
Method: as §1, §2, §3, §4, §5, §6, §7

[8] = test system: Pseudomonas aeruginosa PA (RR-1); experiment: MIC determination; conditions: Pseudomonas aeruginosa; PA (RR-1); CAMH broth, 20 μM Apo-Transferrin, 37° C., 18 hours; read-out: Minimum Inhibitory Concentrations, PA (RR-1)
Method: as §1, §2, §3, §4, §5, §6, §7

[9] = test system: Pseudomonas aeruginosa PA-RR-(G7304100); experiment: MIC determination; conditions: Pseudomonas aeruginosa; PA-RR-(G7304100); CAMH broth, 20 μM Apo-Transferrin, 37° C., 18 hours; read-out: Minimum Inhibitory Concentrations, PA-RR-(G7304100)
Method: as §1, §2, §3, §4, §5, §6, §7

[10] = test system: Pseudomonas aeruginosa PA-RR-(G7305586); experiment: MIC determination; conditions: Pseudomonas aeruginosa; PA-RR-(G7305586); CAMH broth, 20 μM Apo-Transferrin, 37° C., 18 hours; read-out: Minimum Inhibitory Concentrations, PA-RR-(G7305586)
Method: as §1, §2, §3, §4, §5, §6, §7

[11] = test system: Pseudomonas aeruginosa PA (RR-2); experiment: MIC determination; conditions: Pseudomonas aeruginosa; PA (RR-2); CAMH broth, 20 μM Apo-Transferrin, 37° C., 18 hours; read-out: Minimum Inhibitory Concentrations, PA (RR-2)
Method: as §1, §2, §3, §4, §5, §6, §7

[12] = test system: Pseudomonas aeruginosa PA (URMC-3); experiment: MIC determination; conditions: Pseudomonas aeruginosa; PA (URMC-3); CAMH broth, 20 μM Apo-Transferrin, 37° C., 18 hours; read-out: Minimum Inhibitory Concentrations, PA (URMC-3)
Method: as §1, §2, §3, §4, §5, §6, §7

[13] = test system: Pseudomonas aeruginosa PA (URMC-2); experiment: MIC determination; conditions: Pseudomonas aeruginosa; PA (URMC-2); CAMH broth, 20 μM Apo-Transferrin, 37° C., 18 hours; read-out: Minimum Inhibitory Concentrations, PA (URMC-2)
Method: as §1, §2, §3, §4, §5, §6, §7

[14] = test system: Isogenic E. coli J58 strain carrying IMP-1; experiment: MIC determination, isogenic E. coli strains
Summary of the method: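 Broth microdilution in cation-adjusted Mueller-Hinton broth with 20 μM apo-transferrin, compound serially diluted two-fold from 64 μg/mL, against E. coli J53 carrying plasmid-borne IMP-1. Inoculum adjusted to 0.5 McFarland; plates incubated 18 h at 37° C. MIC taken as lowest concentration giving a clear well.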

[15] = test system: Isogenic E. coli J58 strain carrying NDM-1; experiment: MIC determination, isogenic E. coli strains; conditions: Escherichia coli, 18 h, read-out: Mimimum Inhibitory Concentrations, NDM-1
Summary of the method: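 E. coli J53 transformed with a pBC-SK(+) plasmid encoding NDM-1 was adjusted to 0.08-0.1 OD600. It was grown 18 h at 37° C in CAMH broth containing 20 μM apo-transferrin with twofold compound dilutions from 64 μg/mL. MIC was taken as the lowest concentration giving a transparent well.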

[16] = test system: Isogenic E. coli J58 strain carrying SHV-1; experiment: MIC determination, isogenic E. coli strains; conditions: Escherichia coli, 18 h, read-out: Mimimum Inhibitory Concentrations, SHV-1
Summary of the method: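 MIC is the lowest compound concentration leaving a transparent well after overnight (18 h) incubation at 37 °C. The test strain was E. coli J53 expressing plasmid-borne SHV-1 beta-lactamase from pBC-SK(+), adjusted to 0.5 McFarland. Compounds were twofold serially diluted, starting at 64 μg/mL, in CAMH broth supplemented with 20 μM apo-transferrin.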

[17] = test system: Isogenic E. coli J58 strain carrying KPC-2; experiment: MIC determination, isogenic E. coli strains; conditions: Escherichia coli, 18 h, read-out: Mimimum Inhibitory Concentrations, KPC-2
Summary of the method: (§8)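 Broth microdilution in cation-adjusted Mueller-Hinton broth with 20 μM apo-transferrin, compound at 64 down to […], inoculum set to 0.5 McFarland. E. coli J53 transformed with pBC-SK(+) carrying the synthetic beta-lactamase gene was used. Plates were incubated 18 h at 37 °C; MIC is the lowest concentration giving a clear well.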

[18] = test system: Isogenic E. coli J58 strain carrying KPC-3; experiment: MIC determination, isogenic E. coli strains; conditions: Escherichia coli, 18 h, read-out: Mimimum Inhibitory Concentrations, KPC-3
Summary of the method: as §8

CC(C)(O/N=C(\C(=O)N[C@@H]1C(=O)N2C(C(=O)O)=C(C=Cc3ccc(C[N+]4(C)Cc5cc(O)c(O)c(Cl)c5C4)cc3)CS[C@H]12)c1csc(N)n1)C(=O)O (mixture of isomers) [Compound 432, 2-(4-((E/Z)-2-((6R,7R)-7-((Z)-2-(2-aminothiazol-4-yl)-2-(((2-carboxypropan-2-yl)oxy)imino)acetamido)-2-carboxy-8-oxo-5-thia-1-azabicyclo[4.2.0]oct-2-en-3-yl)vinyl)benzyl)-4-chloro-5,6-dihydroxy-2-methylisoindolin-2-ium]
MIC [1]: ≤ 0.06 µg/mL
Mimimum Inhibitory Concentrations, J53 Alone [1]: ≤0.06 microgram/mL
MIC [2]: ≤ 0.06 µg/mL
MIC [3]: 0.5 µg/mL
MIC [4]: 1 µg/mL
MIC [5]: 0.25 µg/mL
MIC [6]: 4 µg/mL
MIC [7]: 0.25 µg/mL
MIC [8]: 1 µg/mL
MIC [9]: ≤ 0.06 µg/mL
MIC [10]: 1 µg/mL
MIC [11]: 0.13 µg/mL
MIC [12]: 1 µg/mL
MIC [13]: 0.5 µg/mL
MICs for an E. coli strain carrying the gene for carbapenemase IMP-1, in words ([14]; review of Tables 4-1 and 4-2): low microgram/mL MICs
MIC [15]: > 64 µg/mL

CC(C)(O/N=C(\C(=O)N[C@@H]1C(=O)N2C(C(=O)O)=C(C=Cc3ccc(C[n+]4ccc(-c5ccc(O)c(O)c5)cc4)cc3)CS[C@H]12)c1csc(N)n1)C(=O)O (mixture of isomers) [Compound 412, 1-(4-((E/Z)-2-((6R,7R)-7-((Z)-2-(2-aminothiazol-4-yl)-2-(((2-carboxypropan-2-yl)oxy)imino)acetamido)-2-carboxy-8-oxo-5-thia-1-azabicyclo[4.2.0]oct-2-en-3-yl)vinyl)benzyl)-4-(3,4-dihydroxyphenyl)pyridin-1-ium]
MIC [1]: ≤ 0.06 µg/mL
Mimimum Inhibitory Concentrations, J53 Alone [1]: ≤0.06 microgram/mL
MIC [2]: 1 µg/mL
MIC [3]: 1 µg/mL
MIC [4]: 2 µg/mL
MIC [5]: 2 µg/mL
MIC [6]: 4 µg/mL
MIC [7]: 4 µg/mL
MIC [8]: 4 µg/mL
MIC [9]: ≤ 0.06 µg/mL
MIC [10]: 16 µg/mL
MIC [11]: 2 µg/mL
MIC [12]: ≤ 0.06 µg/mL
MIC [13]: 2 µg/mL
MIC [15]: > 64 µg/mL

CC(C)(O/N=C(\C(=O)N[C@@H]1C(=O)N2C(C(=O)O)=C(C=Cc3ccc(C[N+]4(C)Cc5c(Cl)c(O)c(O)c(Cl)c5C4)cc3)CS[C@H]12)c1csc(N)n1)C(=O)O (mixture of isomers) [Compound 431, 2-(4-((E/Z)-2-((6R,7R)-7-((Z)-2-(2-aminothiazol-4-yl)-2-(((2-carboxypropan-2-yl)oxy)imino)acetamido)-2-carboxy-8-oxo-5-thia-1-azabicyclo[4.2.0]oct-2-en-3-yl)vinyl)benzyl)-4,7-dichloro-5,6-dihydroxy-2-methylisoindolin-2-ium]
MIC [1]: ≤ 0.06 µg/mL
Mimimum Inhibitory Concentrations, J53 Alone [1]: ≤0.06 microgram/mL
MIC [2]: ≤ 0.06 µg/mL
MIC [3]: 0.5 µg/mL
MIC [4]: 0.5 µg/mL
MIC [5]: 0.25 µg/mL
MIC [6]: 4 µg/mL
MIC [7]: 0.25 µg/mL
MIC [8]: 0.13 µg/mL
MIC [9]: ≤ 0.06 µg/mL
MIC [10]: 0.5 µg/mL
MIC [11]: ≤ 0.06 µg/mL
MIC [12]: 1 µg/mL
MIC [13]: ≤ 0.06 µg/mL
MIC [15]: > 64 µg/mL
MIC [16]: 0.13 µg/mL

C#CC[N+]1(Cc2ccc(C=CC3=C(C(=O)O)N4C(=O)[C@@H](NC(=O)/C(=N\OC(C)(C)C(=O)O)c5csc(N)n5)[C@H]4SC3)cc2)CCc2cc(O)c(O)cc2C1 (mixture of isomers) [Compound 446, 2-(4-((E/Z)-2-((6R,7R)-7-((Z)-2-(2-aminothiazol-4-yl)-2-(((2-carboxypropan-2-yl)oxy)imino)acetamido)-2-carboxy-8-oxo-5-thia-1-azabicyclo[4.2.0]oct-2-en-3-yl)vinyl)benzyl)-6,7-dihydroxy-2-(prop-2-yn-1-yl)-1,2,3,4-tetrahydroisoquinolin-2-ium]
MIC [17]: 2 µg/mL
MIC [18]: 1 µg/mL
MIC [1]: 0.13 µg/mL
Mimimum Inhibitory Concentrations, J53 Alone [1]: 0.13 microgram/mL
MIC ([14]; Escherichia coli, 18 h, read-out: Mimimum Inhibitory Concentrations, IMP-1): 1 µg/mL
MIC [15]: > 64 µg/mL
